Laboratory results reported in patent publication US20230346827A1 (priority 2020, published 2023).
Marks after values point to notes of the source that are not given here.

Experiments:
[1] = target: T1, SARS-CoV-2 spike protein - ACE2 interaction (Severe acute respiratory syndrome coronavirus 2, UniProt P0DTC2); experiment: RayBio COVID-19 Spike-ACE2 binding assay kit (ELISA); set-up: species or system SARS-CoV-2 / human; conditions: LMW-DS 3.0 to 600 µg/ml
T1 construct: purchased RayBio CoV-SACE2
Method: The RayBio® COVID-19 Spike-ACE2 binding assay kit (cat. number CoV-SACE2) was used as per the manufacturer’s instructions (ver 1.6) to assess the ability of LMW-DS to disrupt the interaction between SARS-CoV-2 spike protein and ACE2.
LMW-DS (ILB®, Tikomed AB, Viken, Sweden, WO 2016/076780) in saline was added in concentrations ranging from […] to 600 µg/ml.

[2] = system: rats subjected to sTBI; experiment: sTBI rats, LMW-DS 15 mg/kg s.c.: HPLC of brain purine-pyrimidine/energy metabolites (Example 3); format: in vivo, rat
Method: The experimental protocol used in this study was approved by the Ethical Committee of the Catholic University of Rome, according to international standards and guidelines for animal care. Male Wistar rats of 300-350 g body weight (b.w.) were fed with standard laboratory diet and water ad libitum in a controlled environment.
They were divided into three groups: • 1) n = 6 animals subjected to sTBI, with drug administration after 30 minutes and sacrifice at 2 days post-TBI (Acute phase 1) • 2) n= 6 animals subjected to sTBI, with drug administration after 30 minutes and sacrifice at 7 days post-TBI (Acute phase 2). • 3) n= 6 animals subjected to sTBI, with drug administration after 3 days and sacrifice at 7 days post-TBI (Chronic phase).
As the anesthetic mixture, animals received 35 mg/kg b.w. ketamine and 0.25 mg/kg b.w. midazolam by i.p. injection. sTBI was induced by dropping a 450 g weight from 2 m height on to the rat head that had been protected by a metal disk previously fixed on the skull, according to the “weight drop” impact acceleration model (Marmarou et al., J Neurosurg. 1994; 80: 291-300). […] At the end of each period of treatment, rats were anesthetized again and then immediately sacrificed.
The drug treatment was a subcutaneous injection of 0.5 ml of LMW-DS (ILB®, Tikomed AB, Viken, Sweden, WO 2016/076780; 15 mg/kg) and administered according to the aforementioned schematic protocol.
An in vivo craniectomy was performed in all animals during anesthesia, after carefully removing the rat’s skull, the brain was exposed and removed with a surgical spatula and quickly dropped in liquid nitrogen. After the wet weight (w.w.) determination, tissue preparation was affected as previously disclosed (Tavazzi et al., Neurosurgery. 2005; 56: 582-589; Vagnozzi et al., Neurosurgery. 2007; 61: 379-388; Tavazzi et al., Neurosurgery. 2007; 61: 390-395; Amorini et al., J Cell Mol Med. 2017; 21: 530-542.). Briefly, whole brain homogenization was performed with 7 ml of ice-cold, nitrogen-saturated, precipitating solution composed by CH3CN + 10 mM KH2PO4, pH 7.40, (3:1; v:v), and using an Ultra-Turrax set at 24,000 rpm/min (Janke & Kunkel, Staufen, Germany). After centrifugation at 20,690 x g, for 10 min at 4° C., the clear supernatants were saved, pellets were supplemented with 3 ml of the precipitating solution and homogenized again as described above. A second centrifugation was performed (20,690 x g, for 10 min at 4° C.), pellets were saved, supernatants combined with those previously obtained, extracted by vigorous agitation with a double volume of HPLC-grade CHCl3 and centrifuged as above. The upper aqueous phases containing water-soluble low-molecular weight compounds were collected, subjected to chloroform washings for two more times (this procedure allowed the removal of all the organic solvent and of any lipid soluble compound from the buffered tissue extracts), adjusted in volumes with 10 mM KH2PO4, pH 7.40, to have ultimately aqueous 10% tissue homogenates and saved at -80° C. until assayed.
Aliquots of each deproteinized tissue samples were filtered through a 0.45 µm HV Millipore filter and loaded (200 µl) onto a Hypersil C-18, 250 × 4.6 mm, 5 µm particle size column, provided with its own guard column (Thermo Fisher Scientific, Rodano, Milan, Italy) and connected to an HPLC apparatus consisting of a Surveyor System (Thermo Fisher Scientific, Rodano, Milan, Italy) with a highly sensitive diode array detector (equipped with a 5 cm light path flow cell) and set up between 200 and 300 nm wavelength. Data acquisition and analysis were performed by a PC using the ChromQuest® software package provided by the HPLC manufacturer. […]

[3] = Acute phase 1: drug 30 min, sacrifice 2 d post-TBI
[4] = Acute phase 2: drug 30 min, sacrifice 7 d post-TBI
[5] = Chronic phase: drug 3 d, sacrifice 7 d post-TBI
[6] = after administration of LMW-DS 15 mg/kg

Q: How did the “SARS-CoV-2 spike protein - ACE2 interaction” value [1] turn out when sodium salt of dextran sulfate [LMW-DS] was run?
A: The value was “concentration dependent disruption”.

Q: And the ASCORBIC ACID [2, 3]?
A: Its ASCORBIC ACID is 3733.10±277.88^a,d nmol/g (w.w.).

Q: And the CDP choline [2, 3]?
A: The CDP choline was 10.93±3.22^b,h nmol/g (w.w.).

Q: And the CMP [2, 3]?
A: The CMP was 30.12±9.97^a,h nmol/g (w.w.).

Q: And the CREATININE [2, 3]?
A: The CREATININE was 24.55±3.20^b,g,i nmol/g (w.w.).

Q: What about the CYTIDINE [2, 3] of the same substance?
A: The CYTIDINE was 15.40 ± 3.04 nmol/g (w.w.).

Q: What about the CYTOSINE [2, 3] of the same substance?
A: Its CYTOSINE is 17.69±2.50^b,d nmol/g (w.w.).

Q: What about the GSH [2, 3] of the same substance?
A: The GSH was 2649.50±397.31^a,d nmol/g (w.w.).

Q: And the GUANINE [2, 3]?
A: Its GUANINE is 4.80±1.24^b nmol/g (w.w.).

Q: What about the GUANOSINE [2, 3] of the same substance?
A: Its GUANOSINE is 20.71 ± 5.66 nmol/g (w.w.).

Q: And the HYPOXANTHINE [2, 3]?
A: The HYPOXANTHINE was 14.47±2.87^a nmol/g (w.w.).

Q: What about the INOSINE [2, 3] of the same substance?
A: The INOSINE was 92.55±31.20^c nmol/g (w.w.).

Q: What about the MDA [2, 3] of the same substance?
A: The MDA was 12.47±2.09^a,c,g nmol/g (w.w.).

Q: What about the NO2 [2, 3] of the same substance?
A: Its NO2 is 216.03±41.74^a nmol/g (w.w.).

Q: What about the URACIL [2, 3] of the same substance?
A: The URACIL was 14.56 ± 5.44 nmol/g (w.w.).

Q: And the URIC ACID [2, 3]?
A: The URIC ACID was 23.62±3.77^a,d,h nmol/g (w.w.).

Q: What about the URIDINE [2, 3] of the same substance?
A: The URIDINE was 76.35±12.85^a,c nmol/g (w.w.).

Q: What about the XANTHINE [2, 3] of the same substance?
A: The XANTHINE was 9.46±2.34^d nmol/g (w.w.).

Q: What about the adenine [2, 3] of the same substance?
A: The adenine was 44.82±6.31 ^a,d,g nmol/g (w.w.).

Q: What about the thymidine [2, 3] of the same substance?
A: Its thymidine is 0.69 ± 0.11 nmol/g (w.w.).

Q: And the β-PSEUDOURIDINE [2, 3]?
A: The β-PSEUDOURIDINE was 6.65±1.30^g,i nmol/g (w.w.).

Q: What about the ASCORBIC ACID [2, 4] of the same substance?
A: The ASCORBIC ACID was 3512.58±224.62^a,e nmol/g (w.w.).

Q: What about the CDP choline [2, 4] of the same substance?
A: The CDP choline was 6.91 ± 1.86 nmol/g (w.w.).

Q: And the CMP [2, 4]?
A: The CMP was 15.68±2.12^f,j nmol/g (w.w.).

Q: And the CREATININE [2, 4]?
A: The CREATININE was 37.27±5.82^a,e,j nmol/g (w.w.).

Q: And the CYTIDINE [2, 4]?
A: Its CYTIDINE is 16.18±4.21^e nmol/g (w.w.).

Q: And the CYTOSINE [2, 4]?
A: Its CYTOSINE is 15.70±4.10^f nmol/g (w.w.).

Q: And the GSH [2, 4]?
A: Its GSH is 2821.50±242.82^a,e nmol/g (w.w.).

Q: What about the GUANINE [2, 4] of the same substance?
A: Its GUANINE is 4.73 ± 1.07 nmol/g (w.w.).

Q: And the GUANOSINE [2, 4]?
A: Its GUANOSINE is 17.90±3.24^j nmol/g (w.w.).

Q: And the HYPOXANTHINE [2, 4]?
A: The HYPOXANTHINE was 12.90±2.58^a,j nmol/g (w.w.).

Q: And the INOSINE [2, 4]?
A: Its INOSINE is 85.52±20.36^e nmol/g (w.w.).

Q: What about the MDA [2, 4] of the same substance?
A: The MDA was 4.82±1.73^a,e,i nmol/g (w.w.).

Q: What about the NO2 [2, 4] of the same substance?
A: Its NO2 is 226.40±30.95^b nmol/g (w.w.).

Q: What about the URACIL [2, 4] of the same substance?
A: The URACIL was 19.40±7.52^a,e nmol/g (w.w.).

Q: And the URIC ACID [2, 4]?
A: Its URIC ACID is 19.17±2.15^a,h,i nmol/g (w.w.).

Q: And the URIDINE [2, 4]?
A: The URIDINE was 63.02±9.66^b,e nmol/g (w.w.).

Q: And the XANTHINE [2, 4]?
A: The XANTHINE was 10.41±2.11^f nmol/g (w.w.).

Q: What about the adenine [2, 4] of the same substance?
A: The adenine was 58.16±6.36^a,f nmol/g (w.w.).

Q: And the thymidine [2, 4]?
A: Its thymidine is 0.49±0.20^f nmol/g (w.w.).

Q: What about the β-PSEUDOURIDINE [2, 4] of the same substance?
A: Its β-PSEUDOURIDINE is 13.26±3.16^a,e,j nmol/g (w.w.).

Q: And the ASCORBIC ACID [2, 5]?
A: Its ASCORBIC ACID is 3375.03±856.41 ^a,e nmol/g (w.w.).

Q: What about the CDP choline [2, 5] of the same substance?
A: The CDP choline was 8.37 ± 2.19 nmol/g (w.w.).

Q: And the CMP [2, 5]?
A: Its CMP is 20.51±3.73^a,f nmol/g (w.w.).

Q: What about the CREATININE [2, 5] of the same substance?
A: The CREATININE was 51.25±10.17^a,f nmol/g (w.w.).

Q: What about the CYTIDINE [2, 5] of the same substance?
A: The CYTIDINE was 14.71±2.83^e nmol/g (w.w.).

Q: And the CYTOSINE [2, 5]?
A: Its CYTOSINE is 15.58±2.50^b,f nmol/g (w.w.).

Q: And the GSH [2, 5]?
A: The GSH was 2608.67±358.07^a,e nmol/g (w.w.).

Q: And the GUANINE [2, 5]?
A: The GUANINE was 5.31±1.04^b nmol/g (w.w.).

Q: What about the GUANOSINE [2, 5] of the same substance?
A: Its GUANOSINE is 28.87±7.60^a,f nmol/g (w.w.).

Q: And the HYPOXANTHINE [2, 5]?
A: Its HYPOXANTHINE is 17.97±4.49^a nmol/g (w.w.).

Q: What about the INOSINE [2, 5] of the same substance?
A: Its INOSINE is 105.81±25.57^f nmol/g (w.w.).

Q: And the MDA [2, 5]?
A: The MDA was 11.62±3.90^a,e nmol/g (w.w.).

Q: And the NO2 [2, 5]?
A: The NO2 was 217.67±55.04^a nmol/g (w.w.).

Q: And the URACIL [2, 5]?
A: Its URACIL is 16.57±2.99^a f nmol/g (w.w.).

Q: And the URIC ACID [2, 5]?
A: The URIC ACID was 27.77±3.60^a nmol/g (w.w.).

Q: And the URIDINE [2, 5]?
A: The URIDINE was 63.28±3.37^f nmol/g (w.w.).

Q: What about the XANTHINE [2, 5] of the same substance?
A: The XANTHINE was 9.35±0.83^f nmol/g (w.w.).

Q: What about the adenine [2, 5] of the same substance?
A: Its adenine is 52.94±8.59^a,f nmol/g (w.w.).

Q: What about the thymidine [2, 5] of the same substance?
A: Its thymidine is 0.71 ± 0.11 nmol/g (w.w.).

Q: And the β-PSEUDOURIDINE [2, 5]?
A: The β-PSEUDOURIDINE was 18.62±2.80^a nmol/g (w.w.).

Q: And the nitrate concentrations ([2]; acute and chronic phases of sTBI)?
A: Its nitrate concentrations is “significantly decreased”.

Q: What about the MDA levels [2, 6] of the same substance?
A: Its MDA levels is “significant reduction”.

Q: And the “ascorbic acid and GSH levels” value [2, 6]?
A: The value was “significant improvement”.

Q: What about the “NAA and its substrates, levels” value ([2]; after sTBI, LMW-DS 15 mg/kg) of the same substance?
A: Its value is “significant improvements”.
